Laboratory results: article PMC13500670, “The U1 snRNP protein U1C and Helix H of U1 snRNA are critical for small molecule splicing modulator function” (Nature Communications, 2026)

Tests used:
[1] = biological target: T1, native U1 snRNP + SMN2 5' ss oligo (Homo sapiens, UniProt P09234); experiment: FP: native U1 snRNP binding to SMN2 5' ss oligo with DMSO or compound; conditions: Fig. 1B; 10 μM branaplam
T1 construct: we added a large excess of full-length U1C (800 nM) expressed in and purified from E. coli; endogenous in cells; host or cells: HeLa-S3 with CRISPR knock-in of a C-terminal HTP tag on U1A; the added U1C came from E. coli
Description: We engineered a protein A-tag on U1A in HeLa cells using CRISPR-Cas9 and purified native U1 snRNP using the protein A tag and IgG resin (Supplementary Fig. 1A). […] Since U1C is weakly associated with U1 snRNP and may fall off at low U1 snRNP concentrations, we added a large excess of full-length U1C (800 nM) expressed in and purified from E. coli in all binding reactions unless otherwise stated.
U1A-HTP cells were adapted to grow in suspension in Joklik’s MEM (Sigma) supplemented with 5% (v/v) newborn calf serum and 1× Pluronic™ F-68 (Gibco). […]
All of 5′-FAM labeled RNA oligos used in this study were synthesized and purified by IDT (USA). Fluorescence polarization (FP) assays were performed in binding buffer (20 mM HEPES pH 7.5, 1 mM MgCl2, 200 mM KCl, 0.01% TritonX-100, 0.1%PEG3350, 2%DMSO) at room temperature using a Envision HTS Plate Reader system (Revvity). […] The equilibrium dissociation constants (Kd) of binding reaction were calculated using the following single-site binding model formula in GraphPad Prism: y=START+(END−START)x/kD+x where x and y represent the concentration of U1 snRNP (or U1 snRNA) and the polarization value measured respectively, START represents the polarization value of protein-free nucleic acid probe, END represents the maximum polarization value when U1 snRNP (or U1 snRNA) binds to the fluorescently labeled 5′ ss oligo. […]

[2] = system: cassette exon / GA/GU iExon inclusion, HEK293 cells, U1C KD; experiment: RNA-seq splicing analysis, compound dose response, U1C knockdown; format: cell-based, human
Excerpt: Skipped exons are highly enriched for noncanonical 5′ ss sequences (on either the intronic or exonic side), which account for 90% of skipped exons (Supplementary Fig. 8C). For example, among skipped exons with a canonical exonic 5′ ss sequence, 74% contain noncanonical intron sequence. These observations are consistent with the previous published role for U1C stabilization of the U1 snRNA-pre-mRNA duplex at the 5′ ss[25]–[28]. […] We will refer to these as class I exons for clarity in later discussion.
We next examined the effect of U1C knockdown on compound-mediated splicing. […] We next used the complete dose response to calculate the effective concentration at which deltaPSIcompound-DMSO is 30 (EC-dPSI30).
HEK293T cells were grown in DMEM media with 10% FBS. 500,000 cells in 1.75 mL of media were plated into a 6-well plate for approximately 6 h. Either siRNA negative control (ThermoFisher Silencer^TM Negative control #2, AM4613) or U1C siRNA (ThermoFisher Silencer^TM Select Pre-designed siRNA, S13225) were transfected for a final concentration of 25 nM using Invitrogen Lipofectamine RNAiMax (13778-150). In brief, 10 μL 5 μM siRNA was added to 115 μL of OptiMEM, while 5 μL Lipofectamine added to 120 μL OptiMEM for 5 minu before mixing the solutions and incubating for 20 min. 250 μL of Lipofectamine:siRNA solution was gentle added to the 1.75 mL cells. After 24 h post-transfection, cells were treated with 10 μL compound resuspended in DMSO. […] Each compound-treated experimental condition was treated and collected in duplicate, while four DMSO only treated samples per siRNA transfection were collected. RNA was isolated using KingFisher^TM Apex instrument and the MagMAX™ mirVana™ Total RNA Isolation Kit (A27828) by Thermo Fisher according to manufacturer’s protocol. Isolated RNA was submitted to Admera Health for library preparation (polyA selected, stranded) and mRNA-sequencing and >20 M 150 bp pair-end reads were returned.
RNAseq and splicing analysis were described earlier using DEDseq (https:// github.com/liwc01/DEDSeq[18]) with minor modifications. RNA sequencing reads were mapped to human genome (hg19) using STAR (version 2.7.10b); only uniquely mapped reads (with MAPQ > 10) with <5 nt/100 nt mismatches and properly paired reads were used. For splicing analysis, all junction reads (read with a gap in alignment indicating splicing) were used, including the ones mapped to unannotated splice sites. Reads were counted for different exons (for cassette exon [CE]) or exonic regions (for A5′ss or A3′ss). For each splicing event, a percent-spliced-in (PSI) value was calculated using the percent of average read number supporting the inclusion among all reads supporting either the inclusion or the exclusion. A minimum of 10 for the denominator of PSI calculation was required. Otherwise, a “NA” value would be generated. PSI values for biological replicates were averaged, and the PSI difference between the two treatment groups was calculated. For a statistical test, a 2 × 2 read counts table was made for each event, with rows for reads supporting inclusion or exclusion, and columns for the two comparing sample groups. […] For biological replicates, each pair of the testing and control sample was analyzed by Fisher’s exact test and the geometric mean of all P-values was reported as a final P-value. […] Potency of splicing modulator was determined by plotting dPSI and identifying the concentration at which the change in PSI reached 30% and reported as EC_dPSI30.

SMILES: CC1(C)CC(Oc2ccc(-c3ccc(-c4cn[nH]c4)cc3O)nn2)CC(C)(C)N1 [Branaplam, branaplam]
- increase of binding affinity by compound versus DMSO [1]: about twofold
- PSI of PDXDC1 iExon ([2]; 5nM, U1C KD, DMSO baseline […]): 2.6 PSI
- U1CKD Log10 effect ([2]; Fig. 8C picture, pEC-dPSI30 mock versus U1C KD): -0.51
- geomean pEC_dPSI30 for all GA/GU iExons ([2]; Fig. 8C, U1C KD): 6.10
